Test results reported in publication PMC5218480 (PLoS ONE, 2017).

System: MV-4-11 cells
Test: Gene expression microarray analysis (Affymetrix PrimeView) and GSEA
Format: cell-based, human
Set-up: RFU PODN (11730768_x_at) / Fold change /veh PODN (11730768_x_at) / RFU LINC00158 (11744669_a_at) / Fold change /veh LINC00158 (11744669_a_at) / RFU DUSP10 (11751237_a_at) / Fold change /veh DUSP10 (11751237_a_at) / RFU ID3 (11757404_x_at) / Fold change /veh ID3 (11757404_x_at) / RFU PLEKHG5 (11737974_s_at) / Fold change /veh PLEKHG5 (11737974_s_at) / RFU LRRC4B (11730491_at) / Fold change /veh LRRC4B (11730491_at) / RFU GIMAP4 (11747438_a_at) / Fold change /veh GIMAP4 (11747438_a_at) / RFU KRT8 (11758183_x_at) / Fold change /veh KRT8 (11758183_x_at) / RFU CNN1 (11734310_a_at) / Fold change /veh CNN1 (11734310_a_at) / RFU VPS37D (11726825_at) / Fold change /veh VPS37D (11726825_at) / RFU C10orf10 (11716522_x_at) / Fold change /veh C10orf10 (11716522_x_at) / RFU KIR2DL2 /// KIR2DL4 /// KIR2DL5A /// KIR2DL5B /// KIR2DS1 /// KIR2DS2 /// KIR2DS3 /// KIR2DS4 /// KIR3DL3 /// KIR3DL3 /// KIR3DS1 (11738374_at) / Fold change /veh KIR2DL2 /// KIR2DL4 /// KIR2DL5A /// KIR2DL5B /// KIR2DS1 /// KIR2DS2 /// KIR2DS3 /// KIR2DS4 /// KIR3DL3 /// KIR3DL3 /// KIR3DS1 (11738374_at) / RFU C1QL1 (11718748_at) / Fold change /veh C1QL1 (11718748_at) / RFU TMPRSS4 (11747572_a_at) / Fold change /veh TMPRSS4 (11747572_a_at) / RFU HAMP (11756126_x_at) / Fold change /veh HAMP (11756126_x_at) / RFU RNFT2 (11725882_a_at) / Fold change /veh RNFT2 (11725882_a_at) / RFU NR4A2 (11747474_a_at) / Fold change /veh NR4A2 (11747474_a_at) / RFU ABCC12 (11746883_a_at) / Fold change /veh ABCC12 (11746883_a_at) / RFU TMEM136 (11760407_x_at) / Fold change /veh TMEM136 (11760407_x_at) / RFU CLDN22 /// WWC2 (11732394_at) / Fold change /veh CLDN22 /// WWC2 (11732394_at) / RFU HLA-DPB1 (11760878_x_at) / Fold change /veh HLA-DPB1 (11760878_x_at) / RFU SPINT1 (11716480_a_at) / Fold change /veh SPINT1 (11716480_a_at) / RFU GAP43 (11754022_s_at) / Fold change /veh GAP43 (11754022_s_at) / RFU A4GNT (11735810_at) / Fold change /veh A4GNT (11735810_at) / RFU PRB3 (11715151_x_at) / Fold change /veh PRB3 (11715151_x_at) / RFU TUBB4B (11761932_at) / Fold change /veh TUBB4B (11761932_at) / RFU CAPN14 (11732068_a_at) / Fold change /veh CAPN14 (11732068_a_at) / RFU TMCC2 (11721928_a_at) / Fold change /veh TMCC2 (11721928_a_at) / RFU IRGQ (11745062_a_at) / Fold change /veh IRGQ (11745062_a_at) / RFU FAM174B (11720279_a_at) / Fold change /veh FAM174B (11720279_a_at) / RFU TMPRSS4 (11748680_a_at) / Fold change /veh TMPRSS4 (11748680_a_at) / RFU FAM212B (11763350_a_at) / Fold change /veh FAM212B (11763350_a_at) / RFU PLEKHG5 (11743358_a_at) / Fold change /veh PLEKHG5 (11743358_a_at) / RFU ZSCAN30 (11745921_a_at) / Fold change /veh ZSCAN30 (11745921_a_at) / RFU CMKLR1 (11741424_a_at) / Fold change /veh CMKLR1 (11741424_a_at) / RFU LOC101060620 /// MAPK8IP1 (11723275_at) / Fold change /veh LOC101060620 /// MAPK8IP1 (11723275_at) / RFU SPTSSB (11747773_x_at) / Fold change /veh SPTSSB (11747773_x_at) / RFU PRSS12 (11739890_at) / Fold change /veh PRSS12 (11739890_at) / RFU BIN1 (11741810_x_at) / Fold change /veh BIN1 (11741810_x_at) / RFU WNT11 (11732464_a_at) / Fold change /veh WNT11 (11732464_a_at) / RFU C10orf10 (11716521_a_at) / Fold change /veh C10orf10 (11716521_a_at) / RFU C5orf56 (11738089_at) / Fold change /veh C5orf56 (11738089_at) / RFU CYB561 (11721691_x_at) / Fold change /veh CYB561 (11721691_x_at) / RFU ANKRD19P (11752326_a_at) / Fold change /veh ANKRD19P (11752326_a_at) / RFU OR2T12 /// OR2T33 /// OR2T8 (11738714_s_at) / Fold change /veh OR2T12 /// OR2T33 /// OR2T8 (11738714_s_at) / RFU VCAN (11748164_a_at) / Fold change /veh VCAN (11748164_a_at) / RFU JSRP1 (11732532_at) / Fold change /veh JSRP1 (11732532_at) / RFU KRTAP10-11 (11738290_x_at) / Fold change /veh KRTAP10-11 (11738290_x_at) / RFU MYO3A (11730013_a_at) / Fold change /veh MYO3A (11730013_a_at) / RFU EBF3 (11725865_a_at) / Fold change /veh EBF3 (11725865_a_at) / RFU CAMK2N1 (11719241_x_at) / Fold change /veh CAMK2N1 (11719241_x_at) / RFU C5orf56 (11738088_a_at) / Fold change /veh C5orf56 (11738088_a_at) / RFU OLFML3 (11715873_a_at) / Fold change /veh OLFML3 (11715873_a_at) / RFU LOC100653217 /// NTM (11731650_a_at) / Fold change /veh LOC100653217 /// NTM (11731650_a_at) / RFU MAPK11 (11762145_a_at) / Fold change /veh MAPK11 (11762145_a_at) / RFU FIZ1 (11724087_x_at) / Fold change /veh FIZ1 (11724087_x_at) / RFU OASL (11726364_x_at) / Fold change /veh OASL (11726364_x_at) / RFU SOX15 (11748057_x_at) / Fold change /veh SOX15 (11748057_x_at) / RFU CD79A (11719716_a_at) / Fold change /veh CD79A (11719716_a_at) / RFU HIST1H1D (11736915_at) / Fold change /veh HIST1H1D (11736915_at) / RFU CASKIN2 (11723855_a_at) / Fold change /veh CASKIN2 (11723855_a_at) / RFU LOC730098 (11760151_x_at) / Fold change /veh LOC730098 (11760151_x_at) / RFU OR4N2 (11742367_at) / Fold change /veh OR4N2 (11742367_at) / RFU PRRT2 (11749266_a_at) / Fold change /veh PRRT2 (11749266_a_at) / RFU SNX32 (11753110_a_at) / Fold change /veh SNX32 (11753110_a_at) / RFU CDHR5 (11726645_a_at) / Fold change /veh CDHR5 (11726645_a_at) / RFU RCAN1 (11760418_a_at) / Fold change /veh RCAN1 (11760418_a_at) / RFU FAM167A (11723789_a_at) / Fold change /veh FAM167A (11723789_a_at) / RFU FAM26E (11764081_at) / Fold change /veh FAM26E (11764081_at) / RFU ISYNA1 (11749810_s_at) / Fold change /veh ISYNA1 (11749810_s_at) / RFU ACY1 (11761880_at) / Fold change /veh ACY1 (11761880_at) / RFU 11764098_at / Fold change /veh 11764098_at / RFU SAMD14 (11745864_x_at) / Fold change /veh SAMD14 (11745864_x_at) / RFU NPB (11741838_a_at) / Fold change /veh NPB (11741838_a_at) / RFU TMPRSS6 (11731388_a_at) / Fold change /veh TMPRSS6 (11731388_a_at) / RFU KRTAP10-2 (11738614_at) / Fold change /veh KRTAP10-2 (11738614_at) / RFU ARHGAP8 /// PRR5-ARHGAP8 (11727945_x_at) / Fold change /veh ARHGAP8 /// PRR5-ARHGAP8 (11727945_x_at) / RFU KRTAP5-7 /// NADSYN1 (11734609_at) / Fold change /veh KRTAP5-7 /// NADSYN1 (11734609_at) / RFU RASL12 (11751679_a_at) / Fold change /veh RASL12 (11751679_a_at) / RFU CDKN2B (11736163_a_at) / Fold change /veh CDKN2B (11736163_a_at) / RFU PRF1 (11729649_at) / Fold change /veh PRF1 (11729649_at) / RFU, ZNF638 /// ZNF638-IT1 / Fold change vs veh, ZNF638 /// ZNF638-IT1 / RFU, PANK3 / Fold change vs veh, PANK3 / RFU, SH3YL1 / Fold change vs veh, SH3YL1 / RFU, ZEB2 / Fold change vs veh, ZEB2 / RFU, NRIP1 / Fold change vs veh, NRIP1 / RFU, PTTG1IP / Fold change vs veh, PTTG1IP / RFU, CAPN2 / Fold change vs veh, CAPN2 / RFU, MED14 / Fold change vs veh, MED14 / RFU, SNORA58 / Fold change vs veh, SNORA58 / RFU, C1orf63 / Fold change vs veh, C1orf63 / RFU, LRRFIP1 / Fold change vs veh, LRRFIP1 / RFU, NDUFAF7 / Fold change vs veh, NDUFAF7 / RFU, SLC12A2 / Fold change vs veh, SLC12A2 / RFU, IBTK / Fold change vs veh, IBTK / RFU, ESF1 / Fold change vs veh, ESF1 / Fold change vs veh, TMEM50B / RFU, TAOK1 / Fold change vs veh, TAOK1 / RFU, ACBD3 / Fold change vs veh, ACBD3 / RFU, TMA16 / Fold change vs veh, TMA16 / RFU, RWDD3 / Fold change vs veh, RWDD3 / RFU, BCAT1 / Fold change vs veh, BCAT1 / RFU, EDEM3 / Fold change vs veh, EDEM3 / RFU, TMEM33 / Fold change vs veh, TMEM33 / RFU, WDR75 / Fold change vs veh, WDR75 / RFU, AHCTF1 / Fold change vs veh, AHCTF1 / RFU, TFRC / Fold change vs veh, TFRC / RFU, ZDHHC17 / Fold change vs veh, ZDHHC17 / RFU, NOM1 / Fold change vs veh, NOM1 / RFU, ARL8B / Fold change vs veh, ARL8B / RFU, ZBTB11 / Fold change vs veh, ZBTB11 / RFU, TAMM41 / Fold change vs veh, TAMM41 / RFU, KIAA1704 /// LOC100996395 / Fold change vs veh, KIAA1704 /// LOC100996395 / RFU, ING1 / Fold change vs veh, ING1 / RFU, TRMT61B / Fold change vs veh, TRMT61B / RFU, FUBP3 / Fold change vs veh, FUBP3 / RFU, TP53 / Fold change vs veh, TP53 / RFU, TNKS2 / Fold change vs veh, TNKS2 / RFU, ZFP14 / Fold change vs veh, ZFP14 / RFU, ACTR2 / Fold change vs veh, ACTR2 / RFU, PPP3R1 / Fold change vs veh, PPP3R1 / RFU, PIK3R1 / Fold change vs veh, PIK3R1 / RFU, HNRNPA1 / Fold change vs veh, HNRNPA1 / RFU, RNF170 / Fold change vs veh, RNF170 / RFU, ZNF28 / Fold change vs veh, ZNF28 / RFU, RNGTT / Fold change vs veh, RNGTT / RFU, OGT / Fold change vs veh, OGT / RFU, BRD1 / Fold change vs veh, BRD1 / RFU, MARS / Fold change vs veh, MARS / RFU, ZNF655 / Fold change vs veh, ZNF655 / RFU, FAHD1 / Fold change vs veh, FAHD1 / RFU, BDP1 / Fold change vs veh, BDP1 / RFU, LRRCC1 / Fold change vs veh, LRRCC1 / RFU, ARID1A / Fold change vs veh, ARID1A / RFU, ZNF146 / Fold change vs veh, ZNF146 / RFU, ZNF330 / Fold change vs veh, ZNF330 / RFU, GPN3 / Fold change vs veh, GPN3 / RFU, C9orf123 / Fold change vs veh, C9orf123 / RFU, N4BP2L2 / Fold change vs veh, N4BP2L2 / RFU, ARFIP1 / Fold change vs veh, ARFIP1 / RFU, FAM179B / Fold change vs veh, FAM179B / RFU, BCL10 / Fold change vs veh, BCL10 / RFU, UHRF1BP1L / Fold change vs veh, UHRF1BP1L / RFU, BET1 / Fold change vs veh, BET1 / RFU, CNOT2 / Fold change vs veh, CNOT2 / RFU, ZNF268 / Fold change vs veh, ZNF268 / Fold change vs veh, ZNF507 / RFU, DGCR2 / Fold change vs veh, DGCR2 / RFU, WDSUB1 / Fold change vs veh, WDSUB1 / Fold change vs veh, HSP90B1 /// MIR3652 / RFU, ADSS / Fold change vs veh, ADSS / RFU, GK / Fold change vs veh, GK / RFU, ZNF148 / Fold change vs veh, ZNF148 / RFU, TAF9 / Fold change vs veh, TAF9 / RFU, SLC1A5 / Fold change vs veh, SLC1A5 / RFU, SLMO2 / Fold change vs veh, SLMO2 / RFU, ABCC4 / Fold change vs veh, ABCC4 / RFU, LOC101060439 /// RAP1B / Fold change vs veh, LOC101060439 /// RAP1B / RFU, RFX7 / Fold change vs veh, RFX7 / RFU, GTPBP10 / Fold change vs veh, GTPBP10 / RFU, CNEP1R1 / Fold change vs veh, CNEP1R1 / RFU, BIVM-ERCC5 /// ERCC5 / Fold change vs veh, BIVM-ERCC5 /// ERCC5 / RFU, ILF3 / Fold change vs veh, ILF3 / RFU 11762660_at / Fold change /veh 11762660_at / RFU VCAN (11757783_s_at) / Fold change /veh VCAN (11757783_s_at) / RFU DDX43 (11728927_at) / Fold change /veh DDX43 (11728927_at) / RFU KRT8 (11758188_x_at) / Fold change /veh KRT8 (11758188_x_at) / RFU NKD1 (11759106_at) / Fold change /veh NKD1 (11759106_at) / RFU SRD5A1 (11742802_a_at) / Fold change /veh SRD5A1 (11742802_a_at) / RFU TPSAB1 /// TPSB2 (11721975_s_at) / Fold change /veh TPSAB1 /// TPSB2 (11721975_s_at) / RFU GSTM3 (11746129_a_at) / Fold change /veh GSTM3 (11746129_a_at) / RFU IL23R (11737362_x_at) / Fold change /veh IL23R (11737362_x_at) / RFU TMEM51 (11727254_a_at) / Fold change /veh TMEM51 (11727254_a_at) / RFU PIWIL2 (11732686_x_at) / Fold change /veh PIWIL2 (11732686_x_at) / RFU ORM1 (11744905_x_at) / Fold change /veh ORM1 (11744905_x_at) / RFU CCDC152 (11743942_at) / Fold change /veh CCDC152 (11743942_at) / RFU ECM1 (11717891_a_at) / Fold change /veh ECM1 (11717891_a_at) / RFU IL23R (11748794_a_at) / Fold change /veh IL23R (11748794_a_at) / RFU TNFAIP8L3 (11732012_x_at) / Fold change /veh TNFAIP8L3 (11732012_x_at) / RFU MBOAT4 (11741988_at) / Fold change /veh MBOAT4 (11741988_at) / RFU 11764193_at / Fold change /veh 11764193_at / RFU TMEM53 (11763286_at) / Fold change /veh TMEM53 (11763286_at) / RFU MAGEB2 (11727129_at) / Fold change /veh MAGEB2 (11727129_at) / RFU TMEM200A (11744735_a_at) / Fold change /veh TMEM200A (11744735_a_at) / RFU CCDC152 (11751479_a_at) / Fold change /veh CCDC152 (11751479_a_at) / RFU FAM211A (11726209_a_at) / Fold change /veh FAM211A (11726209_a_at) / RFU RGS16 (11746705_a_at) / Fold change /veh RGS16 (11746705_a_at) / RFU VCAN (11755009_s_at) / Fold change /veh VCAN (11755009_s_at) / RFU RHOB (11743442_s_at) / Fold change /veh RHOB (11743442_s_at) / RFU RGS16 (11720943_a_at) / Fold change /veh RGS16 (11720943_a_at) / RFU RGS16 (11720944_at) / Fold change /veh RGS16 (11720944_at) / RFU, VPS4B / Fold change vs veh, VPS4B / RFU, CREB1 / Fold change vs veh, CREB1 / RFU, DNAJC13 / Fold change vs veh, DNAJC13 / RFU, GNAQ / Fold change vs veh, GNAQ / RFU, CDK5R1 / Fold change vs veh, CDK5R1 / RFU, ZRANB3 / Fold change vs veh, ZRANB3 / RFU, CUL4A / Fold change vs veh, CUL4A / RFU, CCNY / Fold change vs veh, CCNY / RFU, UFL1 / Fold change vs veh, UFL1 / RFU, COG3 / Fold change vs veh, COG3 / RFU, DIAPH2 / Fold change vs veh, DIAPH2 / RFU, SKA2 / Fold change vs veh, SKA2 / RFU, AFF3 / Fold change vs veh, AFF3 / RFU, LMF1 / Fold change vs veh, LMF1 / RFU, IPO11 / Fold change vs veh, IPO11 / RFU, DFFB / Fold change vs veh, DFFB / RFU, FOXP1 / Fold change vs veh, FOXP1 / RFU, CARD8 / Fold change vs veh, CARD8 / RFU, STRN3 / Fold change vs veh, STRN3 / RFU, ADK / Fold change vs veh, ADK / RFU, RASSF2 / Fold change vs veh, RASSF2 / RFU, WIPF1 / Fold change vs veh, WIPF1 / RFU, LARP1B / Fold change vs veh, LARP1B / RFU, RASA1 / Fold change vs veh, RASA1 / RFU, RB1 / Fold change vs veh, RB1 / RFU, PPFIA1 / Fold change vs veh, PPFIA1 / RFU, MAT2A / Fold change vs veh, MAT2A / RFU, CCT5 / Fold change vs veh, CCT5 / RFU, WDR92 / Fold change vs veh, WDR92 / RFU, CUX1 / Fold change vs veh, CUX1 / RFU, TTC7A / Fold change vs veh, TTC7A / RFU, TMEM135 / Fold change vs veh, TMEM135 / RFU, DEPTOR / Fold change vs veh, DEPTOR / RFU, CPM / Fold change vs veh, CPM / RFU, DNAJB6 / Fold change vs veh, DNAJB6 / RFU, CACNA2D3 / Fold change vs veh, CACNA2D3 / RFU, DTX4 / Fold change vs veh, DTX4 / RFU, TFCP2 / Fold change vs veh, TFCP2 / RFU, GMCL1 /// GMCL1P1 / Fold change vs veh, GMCL1 /// GMCL1P1 / RFU, AEBP2 / Fold change vs veh, AEBP2 / RFU, SNHG1 /// SNORD22 /// SNORD25 /// SNORD26 /// SNORD27 /// SNORD28 /// SNORD29 /// SNORD31 / Fold change vs veh, SNHG1 /// SNORD22 /// SNORD25 /// SNORD26 /// SNORD27 /// SNORD28 /// SNORD29 /// SNORD31 / Fold change (Aza/veh), C12orf56 (ProbeSet 11735607_a_at) / Fold change (ACY-1035/veh), C12orf56 (ProbeSet 11735607_a_at) / Fold change (Aza/veh), FGFR1OP (ProbeSet 11751329_s_at) / Fold change (ACY-1035/veh), FGFR1OP (ProbeSet 11751329_s_at) / Fold change (Aza/veh), VPS36 (ProbeSet 11739960_a_at) / Fold change (ACY-1035/veh), VPS36 (ProbeSet 11739960_a_at) / RFU SYPL1 (11715823_x_at) / Fold change /veh SYPL1 (11715823_x_at) / RFU IGFBP7 (11715501_s_at) / Fold change /veh IGFBP7 (11715501_s_at) / RFU REEP3 (11722064_at) / Fold change /veh REEP3 (11722064_at) / RFU IGLL1 (11728026_x_at) / Fold change /veh IGLL1 (11728026_x_at): dose or concentration left out as unconfirmed
Conditions: MV-4-11 cells, 48 hours

Nc1ccc(-c2cccs2)cc1NC(=O)c1ccc2c(c1)cc(C1CC1)n2CCN1CCOCC1 [ACY-1035]
Fold change /veh VCAN (11755009_s_at): 1.16
